Source: BindingDB's records for doi:10.1021/jm970397q (Merck Research Laboratories, 1997)
Counter-ions that a name gives are not always drawn.

Target: Prothrombin (Homo sapiens, UniProt P00734)
Assay: Inhibition of Thrombin
Conditions: read-out: kon (M-1-s-1)

Work on `NC1CCC(CNC(=O)[C@@H]2CCCN2C(=O)CC2c3ccccc3C=Cc3ccccc32)CC1` (stereo partly drawn) [(S)-1-(2-5H-Dibenzo[a,d]cyclohepten-5-yl-acetyl)-pyrrolidine-2-carboxylic acid (4-amino-cyclohexylmethyl)-amide; hydrochloride] yielded a kon of 1.8e+08 M⁻¹ s⁻¹.
`NC1CCC(CNC(=O)[C@@H]2CCCN2C(=O)CC(C2CCCCC2)C2CCCCC2)CC1` (stereo partly drawn) [(S)-1-(3,3-Dicyclohexyl-propionyl)-pyrrolidine-2-carboxylic acid (4-amino-cyclohexylmethyl)-amide; hydrochloride] showed a kon of 2.3e+08 M⁻¹ s⁻¹.
In the case of `NC1CCC(CNC(=O)[C@@H]2CCCN2C(=O)CC(c2ccccc2)c2ccccc2)CC1` (stereo partly drawn) [(S)-1-(3,3-Diphenyl-propionyl)-pyrrolidine-2-carboxylic acid (4-amino-cyclohexylmethyl)-amide; TFA], the kon was 2.1e+08 M⁻¹ s⁻¹.
`NC1CCC(CNC(=O)[C@@H]2CCCN2C(=O)CC(c2cccnc2)c2ccc3c(c2)OCO3)CC1` (stereo partly drawn) [(S)-1-(3-Benzo[1,3]dioxol-5-yl-3-pyridin-3-yl-propionyl)-pyrrolidine-2-carboxylic acid (4-amino-cyclohexylmethyl)-amide; TFA] gave a kon of 2.51e+08 M⁻¹ s⁻¹.
In the case of `NC1CCC(CNC(=O)[C@@H]2CCCN2C(=O)CC(c2ccccc2)c2ccccn2)CC1` (stereo partly drawn) [(S)-1-(3-Phenyl-3-pyridin-2-yl-propionyl)-pyrrolidine-2-carboxylic acid (4-amino-cyclohexylmethyl)-amide; TFA], the kon was 1.8e+08 M⁻¹ s⁻¹.
`NC1CCC(CNC(=O)[C@@H]2CCCN2C(=O)CC(c2ccccc2)c2cccnc2)CC1` (stereo partly drawn) [(S)-1-(3-Phenyl-3-pyridin-3-yl-propionyl)-pyrrolidine-2-carboxylic acid (4-amino-cyclohexylmethyl)-amide; TFA] showed a kon of 2.1e+08 M⁻¹ s⁻¹.
For `NC1CCC(CNC(=O)[C@@H]2CCCN2C(=O)CC(c2ccccc2)c2ccncc2)CC1` (stereo partly drawn) [(S)-1-(3-Phenyl-3-pyridin-4-yl-propionyl)-pyrrolidine-2-carboxylic acid (4-amino-cyclohexylmethyl)-amide; TFA], the kon was 1.55e+08 M⁻¹ s⁻¹.
